System: Panc02 murine pancreatic adenocarcinoma cells
Assay: hemi-splenectomy liver metastasis mouse model, 90 day survival
Format: in vivo, C57/B16 mice
Conditions: 28-day dosing scheme, followed 90 days
Excerpt: Survival Proportions: 90 Day survival of all groups.
The inventors performed hemi-splenectomy with the injection of 2×10^6 Panc02 murine pancreatic adenocarcinoma cells on C57/B16 mice, aged 9-10 weeks to model metastasis of pancreatic tumor cells to the liver. Mice were divided into treatment groups and dosed with cyclophosphamide and GVAX vaccine as well as an oral IDO1 inhibitor PF-06840003, according to a 28-day dosing scheme.
An oral methocel vehicle was given as a placebo treatment. The IDO inhibitor PF-06840003 and oral methocel compounds were administered twice daily by oral gavage, starting on post-operative day 3 and extending through post-operative day 28. Cyclophosphamide was administered on post-operative day 3. GVAX vaccine was administered on post-operative days 4, 7, 14 and 21. Mice were followed for survival for 90 days.

## O=C1CC(c2c[nH]c3ccc(F)cc23)C(=O)N1 (stereo not shown) [PF-06840003]
  survival: no significant effect on survival

Source: patent US20190365878A1, “PHARMACEUTICAL TREATMENTS FOR PREVENTING OR TREATING PANCREATIC CANCER” (THE JOHNS HOPKINS UNIVERSITY, priority 2016, published 2019)
